According to patent publication US7074789B2, “Kinase inhibitors” (Amgen Inc., priority 1999, dated 2006):
Like-named read-outs stand apart in the source and are kept apart here.

Columns and labels:
Assay type in all cases: biochemical
AKT = biological target: T1, AKT (Homo sapiens, UniProt Q9Y243); assay: Kinase inhibition assay (33P transfer), AKT; conditions: Table 2, kinase inhibition class; read-out: AKT3-1
T1 construct: Kinases are expressed as either kinase domains or full length constructs; made in house
T1 sequence (Q9Y243 whole entry, the tested form may be a part): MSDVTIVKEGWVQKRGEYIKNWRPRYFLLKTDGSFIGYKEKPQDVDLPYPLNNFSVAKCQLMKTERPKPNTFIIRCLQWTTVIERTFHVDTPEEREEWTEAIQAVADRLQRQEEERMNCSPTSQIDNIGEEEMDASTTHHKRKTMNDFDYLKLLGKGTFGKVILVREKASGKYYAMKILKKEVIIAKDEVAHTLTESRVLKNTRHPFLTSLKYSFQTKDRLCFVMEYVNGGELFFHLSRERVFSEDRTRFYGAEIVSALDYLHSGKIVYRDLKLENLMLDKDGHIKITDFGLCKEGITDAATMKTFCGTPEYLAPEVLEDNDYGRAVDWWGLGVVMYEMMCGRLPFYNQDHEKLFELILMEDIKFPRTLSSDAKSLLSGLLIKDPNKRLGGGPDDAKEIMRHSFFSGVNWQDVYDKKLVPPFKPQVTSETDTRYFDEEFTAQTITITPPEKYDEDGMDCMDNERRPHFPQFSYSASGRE
Text: (§1) The inhibitor compounds described herein are screened in the following manner. Kinases suitable for use in the following protocol to determine kinase activity of the compounds described herein include, -but are not limited to: Lck, Lyn, Src, Fyn, Syk, Zap-70, Itk, Tec, Btk, EGFR, ErbB2, Kdr, Flt-1, Flt-3, Tek, c-Met, InsR, and AKT.
(§2) Kinases are expressed as either kinase domains or full length constructs fused to glutathione S-transferase (GST) or polyHistidine tagged fusion proteins in either E. colior Baculovirus-High Five expression systems. […] In some instances, kinases are co-expressed or mixed with purified or partially purified regulatory polypeptides prior to measurement of activity.
(§3) Briefly, The transfer of ^33PO4 from ATP to the synthetic substrates poly(Glu, Tyr) 4:1 or poly(Arg, Ser) 3:1 attached to the bioactive surface of microtiter plates serves as the basis to evaluate enzyme activity. After an incubation period, the amount of phosphate transferred is measured by first washing the plate with 0.5% phosphoric acid, adding liquid scintillant, and then counting in a liquid scintillation detector.

Itk = biological target: T2, Itk (Homo sapiens, UniProt Q08881); assay: Kinase inhibition assay (33P transfer), Itk; conditions: read-out: Itk-1
T2 construct: Kinases are expressed as either kinase domains or full length constructs; made in house
T2 sequence (Q08881 1-620): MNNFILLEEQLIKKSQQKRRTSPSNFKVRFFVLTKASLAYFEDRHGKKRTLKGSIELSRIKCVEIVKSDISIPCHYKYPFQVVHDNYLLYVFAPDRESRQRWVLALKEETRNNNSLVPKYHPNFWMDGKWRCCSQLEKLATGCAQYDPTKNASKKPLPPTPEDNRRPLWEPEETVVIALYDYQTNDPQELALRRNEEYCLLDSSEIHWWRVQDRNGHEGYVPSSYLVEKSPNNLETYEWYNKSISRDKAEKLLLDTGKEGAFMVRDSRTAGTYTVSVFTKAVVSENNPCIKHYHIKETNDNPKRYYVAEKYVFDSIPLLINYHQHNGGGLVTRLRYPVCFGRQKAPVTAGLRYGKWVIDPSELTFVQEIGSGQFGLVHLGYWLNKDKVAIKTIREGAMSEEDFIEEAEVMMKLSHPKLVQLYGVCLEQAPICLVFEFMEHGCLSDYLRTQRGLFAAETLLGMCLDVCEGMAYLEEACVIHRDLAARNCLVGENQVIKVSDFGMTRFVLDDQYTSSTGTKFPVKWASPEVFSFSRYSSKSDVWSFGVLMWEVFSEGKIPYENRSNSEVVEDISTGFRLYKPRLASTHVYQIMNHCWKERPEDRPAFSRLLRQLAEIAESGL
Text: as §1
(§4) Kinases are expressed as either kinase domains or full length constructs fused to glutathione S-transferase (GST) or polyHistidine tagged fusion proteins in either E. colior Baculovirus-High Five expression systems. They are purified to near homogeneity by affinity chromatography essentially as previously described (Lehr et al., 1996; Gish et al., 1995). In some instances, kinases are co-expressed or mixed with purified or partially purified regulatory polypeptides prior to measurement of activity.
as §3, with “Kinase activity and inhibition are measured essentially by established protocols (Braunwalder et al., 1996). Briefly,” for “Briefly,”, “detector. The IC50 is determined by the concentration of compound that causes a 50% reduction in the amount of […] incorporated onto the substrate bound to the plate.” for “detector.”

c-Met = biological target: T3, c-Met (Homo sapiens, UniProt P08581); assay: Kinase inhibition assay (33P transfer), c-Met; conditions: Table 2, kinase inhibition class; read-out: Met-1
T3 construct: Kinases are expressed as either kinase domains or full length constructs; made in house
T3 sequence (P08581 25-1390): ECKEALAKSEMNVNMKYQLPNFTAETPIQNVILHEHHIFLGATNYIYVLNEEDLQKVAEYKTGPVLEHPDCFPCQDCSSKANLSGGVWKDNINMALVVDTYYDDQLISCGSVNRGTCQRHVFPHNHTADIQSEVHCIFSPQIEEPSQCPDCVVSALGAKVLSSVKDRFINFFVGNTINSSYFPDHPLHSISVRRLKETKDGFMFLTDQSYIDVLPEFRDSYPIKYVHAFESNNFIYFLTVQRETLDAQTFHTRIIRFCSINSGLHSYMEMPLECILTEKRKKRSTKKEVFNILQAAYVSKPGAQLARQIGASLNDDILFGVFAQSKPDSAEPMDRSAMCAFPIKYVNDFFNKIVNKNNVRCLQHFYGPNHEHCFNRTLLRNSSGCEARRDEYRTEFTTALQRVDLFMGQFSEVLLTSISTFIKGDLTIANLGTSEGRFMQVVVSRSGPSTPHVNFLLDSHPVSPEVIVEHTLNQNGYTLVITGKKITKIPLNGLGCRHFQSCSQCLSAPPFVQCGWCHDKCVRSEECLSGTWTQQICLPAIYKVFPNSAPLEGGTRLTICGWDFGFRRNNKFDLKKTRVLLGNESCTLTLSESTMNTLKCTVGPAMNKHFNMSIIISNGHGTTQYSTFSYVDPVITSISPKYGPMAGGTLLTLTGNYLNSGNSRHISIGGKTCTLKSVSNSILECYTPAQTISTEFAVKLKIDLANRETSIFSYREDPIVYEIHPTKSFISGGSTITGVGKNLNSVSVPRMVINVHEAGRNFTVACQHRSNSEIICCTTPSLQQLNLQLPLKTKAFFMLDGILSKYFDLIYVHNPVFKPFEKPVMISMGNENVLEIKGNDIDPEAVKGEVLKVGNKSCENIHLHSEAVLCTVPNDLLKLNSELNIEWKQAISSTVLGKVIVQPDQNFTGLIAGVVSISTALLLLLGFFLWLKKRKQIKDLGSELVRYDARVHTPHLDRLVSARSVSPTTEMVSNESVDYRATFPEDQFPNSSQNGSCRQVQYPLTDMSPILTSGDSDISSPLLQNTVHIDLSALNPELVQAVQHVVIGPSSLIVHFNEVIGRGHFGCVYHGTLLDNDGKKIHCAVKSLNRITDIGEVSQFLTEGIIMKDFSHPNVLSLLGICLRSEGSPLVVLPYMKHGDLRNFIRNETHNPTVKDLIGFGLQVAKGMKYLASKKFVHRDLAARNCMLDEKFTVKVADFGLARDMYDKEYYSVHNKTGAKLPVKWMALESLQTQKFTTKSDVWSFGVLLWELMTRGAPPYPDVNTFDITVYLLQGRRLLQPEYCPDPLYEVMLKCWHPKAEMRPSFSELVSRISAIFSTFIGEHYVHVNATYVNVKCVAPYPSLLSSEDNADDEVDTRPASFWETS
Text: as §1, §4
as §3, with “Kinase activity and inhibition are measured essentially by established protocols (Braunwalder et al., 1996). Briefly,” for “Briefly,”, “detector. The IC50 is determined by the concentration of compound that causes a 50% reduction in the amount of […] incorporated onto the substrate bound to the plate.” for “detector.”

EGFR = biological target: T4, EGFR (Homo sapiens, UniProt P00533); assay: Kinase inhibition assay (33P transfer), EGFR; conditions: Table 2, kinase inhibition class; read-out: EGFR-1
T4 construct: Kinases are expressed as either kinase domains or full length constructs; made in house
T4 sequence (P00533 25-1210, species assumed): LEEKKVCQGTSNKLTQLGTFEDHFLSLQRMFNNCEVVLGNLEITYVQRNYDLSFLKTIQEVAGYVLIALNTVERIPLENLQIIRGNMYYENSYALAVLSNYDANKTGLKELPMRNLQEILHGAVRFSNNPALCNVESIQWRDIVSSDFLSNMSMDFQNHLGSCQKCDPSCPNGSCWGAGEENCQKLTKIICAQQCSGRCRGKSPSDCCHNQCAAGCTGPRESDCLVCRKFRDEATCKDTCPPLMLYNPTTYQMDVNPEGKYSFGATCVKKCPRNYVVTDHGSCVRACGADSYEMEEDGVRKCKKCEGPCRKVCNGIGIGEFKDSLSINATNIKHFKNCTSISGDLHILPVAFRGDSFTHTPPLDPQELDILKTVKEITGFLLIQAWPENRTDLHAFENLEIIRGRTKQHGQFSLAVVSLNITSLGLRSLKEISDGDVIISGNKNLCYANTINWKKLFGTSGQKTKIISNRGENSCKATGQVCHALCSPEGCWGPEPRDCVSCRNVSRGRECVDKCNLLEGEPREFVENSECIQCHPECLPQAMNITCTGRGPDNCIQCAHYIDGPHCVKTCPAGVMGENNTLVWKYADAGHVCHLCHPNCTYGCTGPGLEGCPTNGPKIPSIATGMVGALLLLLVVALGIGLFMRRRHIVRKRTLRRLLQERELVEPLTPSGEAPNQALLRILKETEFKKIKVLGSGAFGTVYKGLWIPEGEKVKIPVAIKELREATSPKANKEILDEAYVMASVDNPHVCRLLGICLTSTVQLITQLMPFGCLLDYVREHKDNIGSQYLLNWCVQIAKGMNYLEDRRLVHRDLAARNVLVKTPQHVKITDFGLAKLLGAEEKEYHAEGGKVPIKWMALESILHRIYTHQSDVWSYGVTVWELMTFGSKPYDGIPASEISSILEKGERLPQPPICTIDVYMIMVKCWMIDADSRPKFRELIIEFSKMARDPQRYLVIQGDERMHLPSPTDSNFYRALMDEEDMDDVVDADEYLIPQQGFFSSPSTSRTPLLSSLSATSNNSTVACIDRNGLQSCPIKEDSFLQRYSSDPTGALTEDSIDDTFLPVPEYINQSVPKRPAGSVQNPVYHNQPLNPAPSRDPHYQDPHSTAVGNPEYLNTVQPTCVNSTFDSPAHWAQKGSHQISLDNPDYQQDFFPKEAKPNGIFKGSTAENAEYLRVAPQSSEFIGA
Text: as §1, §4
as §3, with “Kinase activity and inhibition are measured essentially by established protocols (Braunwalder et al., 1996). Briefly,” for “Briefly,”, “detector. The IC50 is determined by the concentration of compound that causes a 50% reduction in the amount of […] incorporated onto the substrate bound to the plate.” for “detector.”

Kdr = biological target: T5, Kdr (Homo sapiens, UniProt P35968); assay: Kinase inhibition assay (33P transfer), Kdr; conditions: read-out: KDR-1
T5 construct: Kinases are expressed as either kinase domains or full length constructs; made in house
T5 sequence (P35968 20-1356, species assumed): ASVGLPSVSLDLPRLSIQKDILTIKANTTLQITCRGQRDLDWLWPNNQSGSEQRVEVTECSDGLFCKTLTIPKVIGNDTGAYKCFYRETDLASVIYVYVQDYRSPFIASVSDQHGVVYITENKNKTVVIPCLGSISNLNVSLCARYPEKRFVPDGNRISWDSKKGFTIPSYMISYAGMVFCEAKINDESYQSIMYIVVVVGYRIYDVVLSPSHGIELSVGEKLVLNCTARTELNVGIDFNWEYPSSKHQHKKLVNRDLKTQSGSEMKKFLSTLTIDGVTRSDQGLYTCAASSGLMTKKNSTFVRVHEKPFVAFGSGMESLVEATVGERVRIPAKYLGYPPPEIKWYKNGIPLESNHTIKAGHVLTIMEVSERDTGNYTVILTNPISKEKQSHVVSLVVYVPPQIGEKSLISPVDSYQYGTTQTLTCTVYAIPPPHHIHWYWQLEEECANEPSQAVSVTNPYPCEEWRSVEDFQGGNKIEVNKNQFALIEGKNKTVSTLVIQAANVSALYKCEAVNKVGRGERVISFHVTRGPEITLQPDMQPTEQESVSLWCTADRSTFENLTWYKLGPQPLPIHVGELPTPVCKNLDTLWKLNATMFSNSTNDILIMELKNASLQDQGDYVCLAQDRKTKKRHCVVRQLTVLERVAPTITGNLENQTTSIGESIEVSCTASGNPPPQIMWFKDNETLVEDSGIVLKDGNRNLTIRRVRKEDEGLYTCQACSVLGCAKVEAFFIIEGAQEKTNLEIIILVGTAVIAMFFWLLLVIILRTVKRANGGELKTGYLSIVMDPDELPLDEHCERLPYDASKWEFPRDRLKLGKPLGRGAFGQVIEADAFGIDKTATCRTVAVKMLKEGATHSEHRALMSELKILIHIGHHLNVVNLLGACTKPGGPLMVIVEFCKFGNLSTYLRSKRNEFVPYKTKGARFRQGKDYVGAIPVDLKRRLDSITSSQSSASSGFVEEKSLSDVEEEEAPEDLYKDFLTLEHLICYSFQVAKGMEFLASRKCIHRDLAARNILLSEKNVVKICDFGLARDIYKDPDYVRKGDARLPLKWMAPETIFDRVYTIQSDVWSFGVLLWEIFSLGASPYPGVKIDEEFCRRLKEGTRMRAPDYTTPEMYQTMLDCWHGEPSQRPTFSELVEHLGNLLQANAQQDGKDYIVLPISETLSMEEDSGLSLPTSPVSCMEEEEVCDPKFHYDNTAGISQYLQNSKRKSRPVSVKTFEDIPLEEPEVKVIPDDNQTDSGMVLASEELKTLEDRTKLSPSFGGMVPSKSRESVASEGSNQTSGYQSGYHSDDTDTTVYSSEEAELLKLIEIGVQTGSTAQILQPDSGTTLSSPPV
Text: as §1, §2, §3

Lck = biological target: T6, Lck (Homo sapiens, UniProt P06239); assay: Kinase inhibition assay (33P transfer), Lck; conditions: read-out: Lck-1
T6 construct: Kinases are expressed as either kinase domains or full length constructs; made in house
T6 sequence (P06239 whole entry, species assumed, the tested form may be a part): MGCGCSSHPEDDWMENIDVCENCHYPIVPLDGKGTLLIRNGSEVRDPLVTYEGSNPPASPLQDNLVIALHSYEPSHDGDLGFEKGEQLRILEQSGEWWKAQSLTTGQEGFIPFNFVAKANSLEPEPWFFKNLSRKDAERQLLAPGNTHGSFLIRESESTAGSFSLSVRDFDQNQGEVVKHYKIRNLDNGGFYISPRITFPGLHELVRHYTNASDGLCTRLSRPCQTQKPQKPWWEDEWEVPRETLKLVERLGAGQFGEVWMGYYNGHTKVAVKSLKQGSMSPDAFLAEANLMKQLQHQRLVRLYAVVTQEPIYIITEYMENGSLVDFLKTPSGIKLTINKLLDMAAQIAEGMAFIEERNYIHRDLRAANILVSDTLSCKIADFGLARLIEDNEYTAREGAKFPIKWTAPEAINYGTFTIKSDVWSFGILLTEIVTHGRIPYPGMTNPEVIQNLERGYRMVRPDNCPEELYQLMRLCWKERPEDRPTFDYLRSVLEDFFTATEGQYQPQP
Text: as §1, §2, §3

Zap-70 = biological target: T7, Zap-70 (Homo sapiens, UniProt P43403); assay: Kinase inhibition assay (33P transfer), Zap-70; conditions: read-out: Zap-1
T7 construct: Kinases are expressed as either kinase domains or full length constructs; made in house
T7 sequence (P43403 1-619): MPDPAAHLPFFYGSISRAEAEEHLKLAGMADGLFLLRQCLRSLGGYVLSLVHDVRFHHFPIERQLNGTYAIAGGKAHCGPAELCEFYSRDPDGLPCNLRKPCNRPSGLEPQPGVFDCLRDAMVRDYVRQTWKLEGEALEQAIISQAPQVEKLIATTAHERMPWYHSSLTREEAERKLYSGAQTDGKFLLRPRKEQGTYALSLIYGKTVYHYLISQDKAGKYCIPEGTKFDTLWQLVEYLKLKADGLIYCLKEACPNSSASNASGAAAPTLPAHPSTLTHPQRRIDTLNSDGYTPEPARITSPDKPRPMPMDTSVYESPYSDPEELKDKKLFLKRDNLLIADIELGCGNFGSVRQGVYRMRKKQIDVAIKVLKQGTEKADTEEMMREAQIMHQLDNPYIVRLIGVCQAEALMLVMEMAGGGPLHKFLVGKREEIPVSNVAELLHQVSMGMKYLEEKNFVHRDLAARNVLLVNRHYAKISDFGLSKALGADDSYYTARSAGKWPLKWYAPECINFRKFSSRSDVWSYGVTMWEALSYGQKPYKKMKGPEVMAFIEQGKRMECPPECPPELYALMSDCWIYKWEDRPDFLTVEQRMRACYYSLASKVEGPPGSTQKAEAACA
Text: as §1, §2, §3

Compound	IC50 (AKT)	IC50 (Itk)	IC50 (c-Met)	IC50 (EGFR)	IC50 (Kdr)	IC50 (Lck)	IC50 (Zap-70)	IC50 (Itk; Table 3)	IC50 (Kdr; Table 3)	IC50 (Lck; Table 3)	IC50 (Zap-70; Table 3)
Nc1ncnc(Nc2cc(Cl)ccc2O)n1 [Compound 1022]	–	–	> 18.9 µM	> 18.9 µM	–	–	–	> 18.9 µM	> 18.9 µM	> 18.9 µM	> 18.9 µM
COc1ccccc1Nc1ncnc(-n2cccc2)n1 [Compound 279]	–	–	> 16.8 µM	> 16.8 µM	–	–	–	> 16.8 µM	> 16.8 µM	> 16.8 µM	> 16.8 µM
Nc1ncnc(Nc2cccc(Cl)c2)n1 [Compound 1019]	–	–	> 20.3 µM	> 20.3 µM	–	–	–	> 20.3 µM	10.8 to 15.8 µM	> 20.3 µM	> 20.3 µM
COc1ccc(Nc2ncnc(-n3cccc3)n2)c(OC)c1 [Compound 273]	–	–	> 15.1 µM	> 15.1 µM	–	–	–	> 15.1 µM	> 15.1 µM	> 15.1 µM	> 15.1 µM
Fc1ccc(Nc2ncnc(-n3cccc3)n2)cc1 [Compound 284]	–	–	> 17.6 µM	> 17.6 µM	–	–	–	> 17.6 µM	13.7 to 17.6 µM	> 17.6 µM	> 17.6 µM
Clc1cc(Cl)cc(Nc2ncnc(-n3cccc3)n2)c1 [Compound 274]	–	–	> 14.7 µM	> 14.7 µM	–	–	–	> 14.7 µM	1.31 to 7.84 µM	> 14.7 µM	> 14.7 µM
Clc1ccccc1Nc1ncnc(-n2cccc2)n1 [Compound 280]	–	–	> 16.6 µM	> 16.6 µM	–	–	–	> 16.6 µM	> 16.6 µM	> 16.6 µM	> 16.6 µM
Nc1ncnc(Nc2ccc(F)cc2F)n1 [Compound 1014]	–	–	> 20.2 µM	> 20.2 µM	–	–	–	> 20.2 µM	> 20.2 µM	> 20.2 µM	> 20.2 µM
ClCc1ccccc1Nc1ncnc(-n2cccc2)n1 [Compound 278]	–	–	> 15.7 µM	> 15.7 µM	–	–	–	> 15.7 µM	> 15.7 µM	> 15.7 µM	> 15.7 µM
FC(F)(F)c1cccc(Nc2ncnc(-n3cccc3)n2)c1 [Compound 277]	–	–	> 14.7 µM	> 14.7 µM	–	–	–	> 14.7 µM	1.31 to 7.86 µM	> 14.7 µM	> 14.7 µM
Cc1cccc(Nc2ncnc(-n3cccc3)n2)c1C [Compound 281]	–	–	> 17 µM	> 17 µM	–	–	–	> 17 µM	> 17 µM	> 17 µM	> 17 µM
Cc1ccc(Nc2ncnc(-n3cccc3)n2)cc1Cl [Compound 276]	–	–	> 15.7 µM	> 15.7 µM	–	–	–	> 15.7 µM	1.4 to 8.4 µM	> 15.7 µM	> 15.7 µM
Nc1ncnc(Nc2nc(-c3ccc(Cl)cc3)cs2)n1 [Compound 1016]	–	–	> 14.8 µM	> 14.8 µM	–	–	–	> 14.8 µM	> 14.8 µM	> 14.8 µM	> 14.8 µM
Nc1ncnc(Nc2cccc(Nc3ncnc(N)n3)c2)n1 [Compound 1027]	–	–	> 15.2 µM	> 15.2 µM	–	–	–	> 15.2 µM	> 15.2 µM	> 15.2 µM	> 15.2 µM
Cc1ccc(Nc2ncnc(N)n2)cc1 [Compound 1017]	–	–	> 22.4 µM	> 22.4 µM	–	–	–	> 22.4 µM	> 22.4 µM	> 22.4 µM	> 22.4 µM
Nc1ncnc(Nc2nc(-c3ccccc3)cs2)n1 [Compound 1020]	–	–	> 16.6 µM	> 16.6 µM	–	–	–	> 16.6 µM	> 16.6 µM	> 16.6 µM	> 16.6 µM
Nc1ncnc(Nc2cccc(C(F)(F)F)c2)n1 [Compound 1015]	–	–	> 17.6 µM	> 17.6 µM	–	–	–	> 17.6 µM	> 17.6 µM	> 17.6 µM	> 17.6 µM

The remaining lines, values ahead:

IC50 (AKT)	IC50 (Itk)	IC50 (c-Met)	IC50 (EGFR)	IC50 (Kdr)	IC50 (Lck)	IC50 (Zap-70)	IC50 (Itk; Table 3)	IC50 (Kdr; Table 3)	IC50 (Lck; Table 3)	IC50 (Zap-70; Table 3)	Compound
> 12.1 µM	> 12.1 µM	> 12.1 µM	> 12.1 µM	> 12.1 µM	9.38 to 12.1 µM	9.38 to 12.1 µM	–	–	–	–	O=c1[nH]c2ccccc2n1-c1ncnc(Nc2cc(Cl)cc(Cl)c2)n1 [Compound 503]
> 9.12 µM	> 9.12 µM	> 9.12 µM	> 9.12 µM	< 0.81 µM	0.81 to 4.86 µM	> 9.12 µM	–	–	–	–	COc1cc(Nc2ncnc(-n3c(=O)[nH]c4ccccc43)n2)cc(OCCN2CCOCC2)c1OC [Compound 1039]
> 10.4 µM	–	> 10.4 µM	5.54 to 8.08 µM	–	–	–	> 10.4 µM	0.923 to 5.54 µM	> 10.4 µM	> 10.4 µM	O=C(Nc1cccc(Nc2ncnc(-n3c(=O)[nH]c4ccccc43)n2)c1)O[C@@H]1CCOC1 [Compound 455]
> 13.7 µM	–	7.31 to 10.7 µM	1.22 to 7.31 µM	–	–	–	> 13.7 µM	1.22 to 7.31 µM	10.7 to 13.7 µM	> 13.7 µM	C#Cc1cccc(Nc2ncnc(-n3c(=O)[nH]c4ccccc43)n2)c1 [Compound 460]
9.13 to 11.7 µM	–	> 11.7 µM	> 11.7 µM	–	–	–	> 11.7 µM	1.04 to 6.26 µM	1.04 to 6.26 µM	> 11.7 µM	NS(=O)(=O)c1ccc(Nc2ncnc(-n3c(=O)[nH]c4ccccc43)n2)cc1 [Compound 451]
–	–	7.27 to 10.6 µM	> 13.6 µM	–	–	–	> 13.6 µM	> 13.6 µM	> 13.6 µM	> 13.6 µM	Cc1cc(Br)ccc1Nc1ncnc(-n2cccc2)n1 [Compound 282]
–	–	> 14.2 µM	> 14.2 µM	–	–	–	> 14.2 µM	> 14.2 µM	> 14.2 µM	7.59 to 11.1 µM	Brc1ccc(Nc2ncnc(-n3cccc3)n2)cc1 [Compound 272]
–	–	12.9 to 16.6 µM	> 16.6 µM	–	–	–	> 16.6 µM	1.47 to 8.83 µM	> 16.6 µM	> 16.6 µM	Clc1cccc(Nc2ncnc(-n3cccc3)n2)c1 [Compound 275]
–	–	> 13.2 µM	> 13.2 µM	–	–	–	> 13.2 µM	> 13.2 µM	> 13.2 µM	> 13.2 µM	FC(F)(F)c1ccc(Cl)c(Nc2ncnc(-n3cccc3)n2)c1 [Compound 283]
